Data as given in patent US10995068B2, “Synthetic sphingolipid-like molecules, drugs, methods of their synthesis and methods of treatment” (The Regents of the University of California, priority 2015, dated 2021).
Where two headings read alike, the source gives them in different places.

Legend:
[1] = tested on: DU145 prostate cancer cells; experiment: Cell Titer Glo proliferation assay in DU145; assay type: cell-based, human; conditions: Mean ± SEM, n ≥ 3, read-out: IC50 values in prostate cancer cell lines, DU145
Procedure: (§1) Previously presented compounds 1-4 (FIG. 23), compounds 5-8 (FIG. 28), and control compound FTY720 (FIG. 2) were used to treat the well-established PC3 and DU145 prostate cancer lines (FIG. 29 and Table 1). A Cell Titer Glo assay was performed to measure proliferation of the cancer lines.
(§2) Cell culture studies: Sup-B15 cells are maintained at 2-3 million/mL in RPMI 1640 (Mediatech) supplemented with 10% fetal calf serum (FCS, Sigma-Aldrich), 10 mM Hepes (Mediatech), 55 μM β-mercaptoethanol (Sigma-Aldrich), 2 mM L-glutamine (Mediatech), and antibiotics. All adherent cells are maintained at 70-80% confluence. Cell are cultured in the following media: PC3 & A549, Ham's F12K (Corning Cell Gro) supplemented with 10% FCS and antibiotics; DU145 cells, MEM (Corning Cell Gro) supplemented with 10% FCS, 1 mM sodium pyruvate (Mediatech), and antibiotics; SW620 & MDA-MB-231, DMEM (Corning Cell Gro) with 10% FCS, 1 mM sodium pyruvate (Mediatech), and antibiotics; Panc-1 cells, DMEM (Corning Cell Gro) supplemented with 10% FCS and antibiotics. All of the above cell lines are available from the ATCC.
(§3) Viability assays: Cell Titer Glo assays (Cell Titer Glo Luminescent Cell Viability Assay kit, cat #G7571, Promega Corporation) are performed in clear bottom 96-well black cell culture plates (cat #655090, Greiner Bio-One, NC, USA). After plating at 1,000 cells/well in volume of 100 μl, cells are left undisturbed for at least 24 h before drug addition. After 72 h, cells are prepared for analysis by adding 10 μl of 0.1% Triton-X100 in PBS with shaking for 1 min at room temperature (RT). Cell Titer-Glo cell lysis reagent (20 μl) is then added followed by 1 min of shaking and a 10 min incubation in the dark at RT. Luminescence is detected using an IVIS imaging system (IVIS Lumina II, Perkin Elmer, USA). […] IC50s are determined using GraphPad Prism (GraphPad Software, Inc, La Jolla, Calif.). SupB-15 viability was determined by flow cytometry. Cell Titer Glo assays were performed with the other cell lines.

[2] = tested on: PC3 prostate cancer cells; experiment: Cell viability by vital dye exclusion and flow cytometry in PC3; assay type: cell-based, human; conditions: Homo sapiens; vital dye exclusion (DAPI) and flow cytometry, 72 h
Procedure: Thus, to determine whether analogues in accordance with embodiments of the invention are cytotoxic, studies were conducted using vital dye exclusion and flow cytometry (Table 2).
as §3

[3] = tested on: PC3 prostate cancer cells; experiment: Cell Titer Glo proliferation assay in PC3; assay type: cell-based, human; conditions: Cell Titer Glo, 72 h, Mean ± SEM, n ≥ 3, read-out: IC50 values in prostate cancer cell lines, PC3
Procedure: as §1, §2, §3

[4] = biological target: T1, S1P receptor 1 (Homo sapiens, UniProt P21453); experiment: S1P receptor activation in CHO cells, S1P1; assay type: cell-based; conditions: CHO cells over-expressing human S1P1, 10 min stimulation, Western blot
T1 construct: expressed in transfected cells
Excerpt: (§4) Phosphorylation may have effects on S1P receptor activity that could cause bradycardia. Bradycardia, the dose-limiting toxicity that prevents the use of FTY720 in cancer patients, stems from FTY720-P's actions on S1P receptors 1 and 3. (Camm, J., et al. (2014) Am. Heart J. 168, 632-644; Cohen, J. A., Chun, J. (2011) Ann. Neurol. 69, 759-777; Sanna, M. G., et al. (2004) J. Biol. Chem. 279, 13839-13848; the disclosures of which are incorporated herein by reference). Phosphorylation by sphingosine kinase may make compounds competent to activate S1P receptors. FTY720, for example, when phosphorylated is known to activate S1P receptors 1 and 3. Because compound 5 could be phosphorylated, the activity of compound 5 and its phosphate 5-P (FIG. 28) on S1P receptors was evaluated (FIG. 32).
(§5) 51P1-5 activation: Chinese hamster ovary (CHO) cells stably over-expressing the different human 51P receptor subtypes are used. S1P1, S1P4 and S1P5 overexpressing CHO cells are cultured in medium containing alpha-MEM supplemented with 10% FBS, 50 μg/ml gentamycin and 0.5 mg/ml G418. S1P2 and S1P3 overexpressing CHO cells are cultured in RPMI containing 10% FBS, 50 μg/ml gentamycin and 0.5 mg/ml G418. Prior to stimulation, cells are rendered serum-free for 24 h. Stimulation is carried out for 10 min in serum-free DMEM containing 0.1 mg/ml of fatty-acid free BSA in the absence or presence of the various compounds or 51P. Protein lysates are prepared using a buffer containing (50 mM Tris pH 7.4, 150 mM NaCl, 10% glycerol, 1% Triton X-100, 2 mM EDTA, 2 mM EGTA, 40 mM β-glycerophosphate, 50 mM sodium fluoride, 10 mM sodium pyrophosphate, 2 mM dithiothreitol, 0.2 mM sodium orthovanadate). Cells are homogenized by one 5 sec burst in a MSE Ultrasonic Disintegrator, centrifuged and taken for protein determination. Equal amounts of protein are separated by SDS-PAGE (10% polyacrylamide gel), transferred to nitrocellulose membranes and subjected to Western blot analysis. Bands were stained using IRDye® secondary antibodies and visualized by the LICOR Odyssey® Fc Imaging system. Antibodies against phospho-Thr202/Tyr204-p42/p44-MAPK and phospho-Ser PKC substrate are from Cell Signaling, Frankfurt am Main, Germany. Polyclonal antisera against total p42 and total p44 were generated and characterized as previously described. (Huwiler, A.; Pfeilschifter, J. Br. J. Pharmacol. 1994, 113, 1455-1463; disclosure of which is incorporated herein by reference).

[5] = Heart rate by ECG telemetry in mice; assay type: in vivo, C57BL/6 mice; conditions: single dose 10 mg/kg intraperitoneally
Excerpt: (§6) In more exemplary embodiments, compounds 5 and 5-P were further examined for their ability to activate multiple S1P receptors in vivo. In particular, mouse heart rate and lymphocyte sequestration were examined. Mouse heart rate decreases causing bradycardia when S1P receptor 3 is activated while in humans this effect may be mediated by S1P receptor 1. In both mice and humans, lymphocytes are sequestered when the S1P receptor 1 is activated.
As shown in the telemetry readings detailed in FIG. 36, FTY720 (B) slowed heart rate comparison to compound 5 (C) and the control (A, saline). As shown in A, after administering saline, normal sinus rhythm with clearly discernible P waves, representing atrial depolarization, and QRS complexes, representing ventricular depolarization, at regular intervals is observed. The heart rate in this tracing was approximately 600 beats per minute (BPM). […] Finally, as shown in C, for exemplary embodiment compound 5, similar to the saline injection, normal sinus rhythm with well-defined and consistent P waves and QRS complexes were present following injection. The heart rate in this tracing was approximately 600 BPM, similar to saline.
Heart rate: C57BL/6 mice are surgically implanted with DSI TA-ETAF20 electrocardiographic telemetry devices (Data Sciences International, St. Paul, Minn.). The electrocardiographic data is collected and recorded using the PhysioTel telemetry system and Dataquest A.R.T 4.0 software (DSI). The telemetry device is implanted in the mouse's abdominal cavity with biopotential leads sutured in place in the chest wall. Buprenorphine (0.05 mg/kg) is administered every 12 h after surgery for pain management and enrofloxacin (3 mg/kg) is administered 2× per day for 7 days post-surgery as an antibiotic. Mice are permitted two weeks recovery after surgery before initiation of baseline telemetry recordings. Heart rate is calculated from ECG data taken in the freely moving, conscious mice. Mice are divided into two groups of 3 mice and treated intraperitoneally with a single dose of vehicle (0.9% saline or 20% acidified DMSO in 0.9% saline), 10 mg/kg FTY720, FTY720-Phosphate, 5, or 5-P and heart rate monitored continuously for 10 h. Mice are rested for two weeks at which point the experiment is repeated with the mice assigned to the alternate group. These experiments are performed in accordance with all national or local guidelines and regulations and were approved by the UCI Institutional Animal Care and Use Committee.

[6] = biological target: T2, S1P receptor 4 (Homo sapiens, UniProt O95977); experiment: S1P receptor activation in CHO cells, S1P4; assay type: cell-based; conditions: CHO cells over-expressing human S1P4
T2 construct: expressed in transfected cells
T2 sequence (O95977 1-384): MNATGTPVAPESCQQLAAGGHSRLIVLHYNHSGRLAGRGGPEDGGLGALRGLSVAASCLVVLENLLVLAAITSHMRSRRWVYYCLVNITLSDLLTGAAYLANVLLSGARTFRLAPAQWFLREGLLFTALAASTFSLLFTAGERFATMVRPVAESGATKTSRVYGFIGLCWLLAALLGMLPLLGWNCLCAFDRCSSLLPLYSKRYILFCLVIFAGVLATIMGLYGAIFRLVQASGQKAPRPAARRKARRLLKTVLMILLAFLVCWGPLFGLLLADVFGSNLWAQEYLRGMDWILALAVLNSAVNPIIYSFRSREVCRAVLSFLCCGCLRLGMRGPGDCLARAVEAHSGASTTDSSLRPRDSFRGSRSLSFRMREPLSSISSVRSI
Excerpt: as §4, §5

[7] = Lymphocyte sequestration in mice; assay type: in vivo, C57BL6 mice; conditions: 10 mg/kg intraperitoneally, blood after 12 h, compared to saline
Excerpt: as §6
Lymphocyte sequestration: Female 8-24 week old C57BL6 mice are injected intraperitoneally with vehicle (0.9% saline or 20% acidified DMSO in 0.9% saline), 10 mg/kg FTY720, FTY720-phosphate, 5, or 5-P. After 12 h, blood is collected from the retro-orbital sinus under ketamine/xylazine anesthesia. 10 μL of whole blood is added to 190 μL of ACK red blood cell lysis buffer, incubated at room temperature for 3-5 minutes […], and the white blood cells recovered by centrifugation. Nucleated cells (Hoechst33342 positive) are counted using a hemocytometer to obtain the white blood cell count. Separately, 50 μL of whole blood is added to 1 mL of ACK red blood cell lysis buffer and incubated for 3-5 minutes at room temperature. Cells are washed with FACS wash (2% FCS in PBS with 0.05% NaN3) and red blood cell lysis repeated. Tubes are decanted and resuspended in 100 μL of FACS block (10% FCS in PBS with 0.05% NaN3) with directly conjugated antibodies recognizing B220, CD4, or CD8 (all from Biolegend, San Diego) for 30 min on ice. Cells are analyzed on a BD LSR II flow cytometer; the analysis is restricted to live cells (DAPI negative). These experiments are performed in accordance with all national or local guidelines and regulations and are approved by the UCI Institutional Animal Care and Use Committee.

[8] = biological target: T3, S1P receptor 3 (Homo sapiens, UniProt Q99500); experiment: S1P receptor activation in CHO cells, S1P3; assay type: cell-based; conditions: CHO cells over-expressing human S1P3
T3 construct: expressed in transfected cells
Excerpt: as §4, §5

[9] = biological target: T4, S1P receptor 5 (Homo sapiens, UniProt Q9H228); experiment: S1P receptor activation in CHO cells, S1P5; assay type: cell-based; conditions: CHO cells over-expressing human S1P5
T4 construct: expressed in transfected cells
Excerpt: as §4, §5

[10] = biological target: T5, S1P receptor 2 (Homo sapiens, UniProt O95136); experiment: S1P receptor activation in CHO cells, S1P2; assay type: cell-based; conditions: CHO cells over-expressing human S1P2
T5 construct: expressed in transfected cells
Excerpt: as §4, §5

T4 sequence (Q9H228 whole entry): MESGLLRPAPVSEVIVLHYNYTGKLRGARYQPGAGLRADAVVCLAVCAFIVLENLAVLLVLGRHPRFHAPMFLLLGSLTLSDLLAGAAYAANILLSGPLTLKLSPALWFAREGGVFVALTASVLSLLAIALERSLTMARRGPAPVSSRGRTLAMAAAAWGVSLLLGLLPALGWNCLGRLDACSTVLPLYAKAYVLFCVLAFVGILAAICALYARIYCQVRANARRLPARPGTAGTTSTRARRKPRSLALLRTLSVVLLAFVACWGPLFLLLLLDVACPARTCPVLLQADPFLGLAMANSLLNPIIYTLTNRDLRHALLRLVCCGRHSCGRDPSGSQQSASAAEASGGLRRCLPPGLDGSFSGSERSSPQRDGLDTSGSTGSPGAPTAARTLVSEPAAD
T5 sequence (O95136 whole entry): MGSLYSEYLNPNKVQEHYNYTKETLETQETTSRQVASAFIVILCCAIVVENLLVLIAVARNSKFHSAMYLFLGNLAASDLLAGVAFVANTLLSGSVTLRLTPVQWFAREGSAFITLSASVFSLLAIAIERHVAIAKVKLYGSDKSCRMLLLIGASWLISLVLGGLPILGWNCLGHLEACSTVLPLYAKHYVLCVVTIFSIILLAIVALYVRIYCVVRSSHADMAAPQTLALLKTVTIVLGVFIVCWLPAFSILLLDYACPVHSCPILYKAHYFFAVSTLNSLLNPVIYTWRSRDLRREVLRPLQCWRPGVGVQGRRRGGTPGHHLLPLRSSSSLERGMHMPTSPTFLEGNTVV
T3 sequence (Q99500 whole entry): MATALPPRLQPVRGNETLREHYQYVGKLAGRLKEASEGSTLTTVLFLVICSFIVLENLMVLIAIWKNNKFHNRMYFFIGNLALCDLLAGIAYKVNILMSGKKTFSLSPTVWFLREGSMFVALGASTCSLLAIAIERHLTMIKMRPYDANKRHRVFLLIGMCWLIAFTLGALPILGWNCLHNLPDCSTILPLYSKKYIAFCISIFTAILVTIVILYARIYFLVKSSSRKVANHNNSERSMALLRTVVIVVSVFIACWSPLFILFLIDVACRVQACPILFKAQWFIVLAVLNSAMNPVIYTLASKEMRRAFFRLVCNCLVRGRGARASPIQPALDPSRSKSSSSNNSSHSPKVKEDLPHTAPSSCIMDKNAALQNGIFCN
T1 sequence (P21453 whole entry): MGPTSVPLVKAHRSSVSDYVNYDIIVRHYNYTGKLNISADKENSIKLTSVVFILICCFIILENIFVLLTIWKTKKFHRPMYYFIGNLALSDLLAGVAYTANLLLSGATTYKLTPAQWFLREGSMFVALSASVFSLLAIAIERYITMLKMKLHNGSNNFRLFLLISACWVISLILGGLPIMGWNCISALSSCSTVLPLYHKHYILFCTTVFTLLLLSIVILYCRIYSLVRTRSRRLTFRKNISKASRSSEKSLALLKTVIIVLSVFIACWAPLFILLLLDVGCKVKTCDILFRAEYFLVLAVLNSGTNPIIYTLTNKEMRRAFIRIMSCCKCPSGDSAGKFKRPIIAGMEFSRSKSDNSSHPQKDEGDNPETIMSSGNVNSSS

Compound	IC50 ([1]; Homo sapiens, DU-145, 72 h) [µM]	IC50 [2] [µM]	IC50 ([3]; Homo sapiens) [µM]	activation of S1P receptor 1 [4]	effect on heart rate ([5]; compared to saline controls)	activation of S1P receptor 4 [6]	lymphocyte sequestration [7]	activation of S1P receptor 3 [8]	activation of S1P receptor 5 [9]	activation of S1P receptor 2 [10]	IC50 ([1]; 72 h) [µM]	IC50 [3] [µM]	decrease of heart rate ([5]; compared to saline vehicle)
CCCCCCCCc1ccc([C@H]2C[C@H](CO)N[C@H]2CO)cc1 [Compound 3, (2R,3R,5R)-2,5-Bis(hydroxymethyl)-3-(4-octylphenyl)pyrrolidinium chloride]	5.3 ± 0.2	8.3 ± 0.2	4.9 ± 0.6										
CCCCCCCCc1ccc([C@H]2CCN[C@@H]2COP(=O)(O)O)cc1 [Compound 5-P, ((2S,3R)-3-(4-octylphenyl)pyrrolidin-1-ium-2-yl)Methyl hydrogen phosphate]				weakly activated	no significant effect	failed to activate	no significant effect	failed to activate	failed to activate	failed to activate			
CCCCCCCCc1ccc([C@@H]2CCN[C@H]2C)cc1.Cl [Compound 12]				not able to activate		not able to activate		not able to activate	not able to activate	not able to activate	5 ± 0.1	4.1 ± 0.4	
CCCCCCCCCCCCC/C=C/[C@@H](O)[C@@H](N)COP(=O)(O)O [Compound S1P, sphingosine-1 phosphate, reference compound]				activated		activated		activated	activated	activated			
CCCCCCCCc1ccc(CC[C@](N)(CO)COP(=O)(O)O)cc1 [FTY720-P, reference compound]							significantly sequestered lymphocytes						approximately 50%
